How the values were obtained:
Format in all cases: in vivo, human
hemodialysis patients [1] = assay: Thoracic spine bone density by computerized tomography densitometry, baseline vs 24 month EBT scan (Extension study); details: two years, FIG. 1
Excerpt: Prior to the completion and analysis of this protocol, the study was extended for an additional two years. During this extension study, patients would remain on the phosphate binder to which they were originally randomized, sevelamer or calcium acetate/carbonate, and EBT scans would be performed at Month 24 and Month 36, to assess long-term changes in cardiovascular calcification. Forty-five patients in the US and 72 patients in the EU were eligible and consented to participate in the Extension study.
Having met the endpoints of the original study, the Extension study was prematurely discontinued. Only 77 Extension study patients opted to have a final EBT scan performed.
The study's EBT Core Lab evaluated the EBT images of patients who had both a baseline and 24 month scan to assess changes over time in trabecular and cortical bone density. Specifically, thoracic spine bone density was assessed by computerized tomography densitometry (density expressed as Hounsfield units). Trabecular bone density was measured in the core of the lowest vertebral body completely captured by the scanning procedure, while cortical bone density was measured in the axial plate of the same vertebral body. Care was taken to evaluate exactly the same vertebral level in consecutive scans in the same patient. […]

hemodialysis patients [2] = assay: Cardiovascular calcification by Electron Beam Tomography (Agatston score), 52 week study; details: Week 0 to 52
Protocol: (§1) The study was a 52 week, randomized, open label, multi-center, parallel study designed to assess the effects of sevelamer compared to calcium acetate/carbonate in enabling hemodialysis patients to reach therapeutic goals of phosphorus <5 mg/dL, calcium <10.5 mg/dL and iPTH in the range of 150-300 pg/mL. Patients also underwent Electron Beam Tomography (EBT) scans at Day 0 and Weeks 26 and 52. These scans were used to assess changes in cardiovascular calcification over time. A total of 202 patients who were on hemodialysis and taking one or more phosphate binders were randomized in a 1:1 design to receive either Renagel® or calcium acetate (United States)/carbonate (Europe), stratified by the presence or absence of diabetes.
Approximately 12 months into the Extension study, the analysis of the initial study was completed. […] This difference was statistically significant (p=0.0398). […] This difference was statistically significant (p=0.0104). When analyzed by percent change and weekly change, the results were consistently in favor of the sevelamer group. Complete results are described in the article referenced as Protocol 7 (Chertow, 2002).

hemodialysis patients [3] = assay: Bone density, baseline vs 12 month scan (Example 2)
Protocol: […] Specifically, thoracic spine bone density was assessed by computerized tomography densitometry (density expressed as Hounsfield units). Trabecular bone density was measured in the core of the lowest vertebral body completely captured by the scanning procedure, while cortical bone density was measured in the axial plate of the same vertebral body. Care was taken to evaluate exactly the same vertebral level in consecutive scans in the same patient. No significant differences in demographics, baseline bone density or vascular calcification scores were observed between the sevelamer and calcium groups, with the exception of age, (sevelamer/Renagel group 53±12 yrs, calcium group 59±13 yrs, p=0.02).

hemodialysis patients [4] = assay: Biochemical marker studies, 52 week randomized study in hemodialysis patients; details: end of the chronic phase of the study
Excerpt: Protocols 1-7 for use of RenaGel® (Geltex Pharmaceuticals, Inc., Waltham, Mass.) in each of the haemodialysis patient studies are provided in the following references, respectively, the teachings of which are incorporated herein by reference in their entireties.
Chertow, G. M., Burke, S. K., Raggi, P., for the Treat to Goal Working Group, “Sevelamer attenuates the progression of coronary and aortic calcification in hemodialysis patients,” Kidney Int. 62: 245-252 (2002).
Osteocalcin and BSAP are measures of osteoblast function and are indicative of bone formation. […] There were no statistically significant differences between treatment groups in the mean change from Day 0 to Week 52 in c-telopeptides, a collagen fragment which indicates osteoclast function and bone resorption.
as §1, with “A total of 202 patients who were on hemodialysis and taking one or more phosphate binders were randomized in a 1:1 design to receive either Renagel® or calcium acetate (United States)/carbonate (Europe), stratified by the presence or absence of diabetes.” left out

hemodialysis patients [5] = assay: Biochemical markers after 12 months of treatment (Example 2); details: on average, one treatment group relative to the other
Protocol: Following the 12 months of treatment, the levels a number of biochemical markers were assayed in the patient groups. […] The group treated with sevelamer had on average higher iPTH, 1-84 PTH, alkaline phosphatase, bone specific alkaline phosphatase, osteocalcin, and HDL cholesterol. The sevelamer group had lower calcium, 25-hydroxyvitamin D, total cholesterol, LDL cholesterol, apolipoprotein B, […] and total CO2.

[6] = 12 month treatment period, absolute and percentage change

calcium acetate/carbonate
change in cortical bone density from baseline (hemodialysis patients [1]): non-significant decrease
change in trabecular bone density from baseline (hemodialysis patients [1]): significant reduction
median change in aortic calcification by Agatston score (hemodialysis patients [2]; p=0.0104 between groups): 75.05
median change in coronary artery calcification by Agatston score (hemodialysis patients [2]; p=0.0398 between groups): 36.55
change in cortical bone density (hemodialysis patients [3]; [6]): trend to reduced
change in trabecular bone density (hemodialysis patients [3]; [6]): significant reduction
magnitude of trabecular bone density loss, mean (hemodialysis patients [3]; 52 weeks): −5%
mean increase in BSAP (bone-specific alkaline phosphatase) (hemodialysis patients [4]; p<0.0001 between groups): 6.81 U/L
mean increase in osteocalcin (hemodialysis patients [4]; p=0.0003 between groups): 15.80 ng/mL
iPTH (hemodialysis patients [5]): significantly lower
